Test [1] relates to angiotensin II constriction in isolated rabbit thoracic aorta. As to the kind of experiment: Antagonism to angiotensin II constriction in an isolated rabbit thoracic aorta. The class given is cell-based. Particulars: test 3); 10^-6 M test compound, 20 min; pA2 = -logKB. As to the method:
3) Antagonism to angiotensin II constriction in an isolated rabbit thoracic aorta
A rectangular strip-like sample of thoracic aorta isolated from an anethetized rabbit was prepared, and this was suspended at 2.0 g of loaded tension in a Magnus tube filled with Krebs-Henseleitoid nutrition solution which was well aerated with 95% O2 -5% CO2, and the constriction tension was measured using an isometric transducer. After the tension of the sample at rest became stable, accumulative administration of angiotensin II was carried out to obtain a concentration-action curve. Thereafter, the sample was washed with the same nutrition solution, and then 10^-6 M test compound was treated for 20 min. to obtain again a concentration-action curve of angiotertsin II. The results were obtained as followed: generated maximum tension at the first accumulative administration of angiotensin II was regarded as 100%, and the 50% effective concentration (ED50) was obtained in the presence or absence of the test compound, and pA2 value was calculated according to the following equations:
pA2 =-logKB KB =C/{(A'/A)-1}
C: concentration of the test compound (M)
A': ED50 in the presence of test compound (M)
A:ED50 in the absence of the test compound (M)

For test [2], the target named is angiotensin II mesenteric artery receptor. As to the kind of experiment: In vitro angiotensin II mesenteric artery receptor binding assay. Particulars: test 1); 125I-Ang II 0.2 nM, rat mesenteric artery membrane fraction, 22° C., 90 min. Here is the method:
1) In vitro angiotensin II mesenteric artery receptor binding assay
According to the method (1) by Gunther et at., a membrane fraction was prepared from mesenteric artery of a male rat, 50 μg protein equivalent thereof and 0.2 nM ^125 I-Ang II as well as various concentrations of test compounds were incubated at 22° C. for 90 min. in 200 μl reaction volume of incubation buffer (50 mM Tris-HCl, 120 mM NaCl, 5 mM MgCl2, 0.25% bovine serum albumin, pH7.2). This was cooled, and the reaction was stopped by addition of ice-cooled phosphate buffer (10 mM phosphate, 140 mM NaCl, pH7.4, hereinafter referred to as PBS), and then the reaction solution was filtered through a glass fiber filter (Whatman CF/B), the filter was washed, dried, and then the radioactivity of captured ^125 I-angiotensin II which bound to the receptor was measured by γ-counter. Non-specific binding mount was obtained from the reaction in the presence of 1 μM of unlabeled angiotensin II. The test compound was tested at the concentration of 0.01 to 1 μM, and those that inhibited more than 50% of total specific binding mount at 1 μM was determined as an active compound, and 50% inhibiting concentration (IC50) was obtained [see Gunther, S., Gimbrone, M. A. and Alexander, R. W., Circ. Res., 17:278-286, 1980].

For test [3], the target named is adrenal cortex angiotensin II receptor. The test is described as follows: In vitro adrenal cortex angiotensin II receptor binding assay. Conditions: test 2); membrane fraction from adrenal cortex of male rat. Here is the method:
2) In vitro adrenal cortex angiotensin II receptor binding assay
According to the method by Capponi et at. (1), angiotensin II receptor binding assay was carried out by preparing a membrane fraction from an adrenal cortex of a male rat and using this as a receptor material in the same manner as in the above-described pharmacological test 1) [see Capponi, A. M. and Catt, K., J. Biol. Chem. 254:5120-5127(1979)].

Test [4] has as its system blood pressure increasing by angiotensin II. The test is described as follows: Antagonism to blood pressure increasing by angiotensin II in a spine destroyed rat. The class given is in vivo, Wistar rat. Conditions: Rattus norvegicus; test 4); intravenous; 3 μg/kg angiotensin II i.v.; inhibition of blood pressure increase. The source says: 4)Antagonism to blood pressure increasing by angiotensin II in a spine destroyed rat
Wistar rat anesthetized with pentobarbital was fixed at dorsal position, and a cannula for measuring blood pressure was inserted into sinister arteria carotis communis, and a cannula for administration of the test compound into dexter external jugular vein and a cannula for administration of angiotensin II into sinister external jugular vein, arebilateral nervous vagus was cut, and artificial respiration was carried out. A thin bar made of metal was stabbed into spinal column through sininster orbita to destroy spine. Blood pressure was recorded on polygraph via pressure transducer from an arterial cannula. After blood pressure was stable for more than 30 min., 3μg/kg of angiotensin II was administered intravenously four times every 15 min., and every 5 min. before the administration of angiotensin II from the second admininstration onward, a solvent, a lower dose of the test compound, and a higher dose of the test compound were admininstered intravenously in this order to observe the blood pressure increasing response by angiotensin II. ED50 values were calculated from the inhibiting rate when the first blood pressure increase by angiotensin II was regarded as 100%.

These results are taken from patent publication US5506361A, “Imidazobenzoquinones and composition for preventing or treating hypertension or congestive heart failure containing the same” (TheUpjohn Company, priority 1991, dated 1996).

One may read the pA2 as the negative logarithm of the molar antagonist concentration that doubles the agonist concentration needed for the same response. High values mean a more potent antagonist, low ones a weaker antagonist. The term IC50 denotes the point on the concentration scale where inhibition reaches its midpoint. Low values mean higher potency, high ones lower potency. Consider `CCCCc1nc2c(n1Cc1ccc(-c3ccccc3C(=O)OC(C)(C)C)cc1)C(=O)c1ccccc1C2=O` [Compound No. 2, 1-[(2'-t-Butoxycarbonylbiphenyl-4-yl)methyl]-2-n-butyl-1H-naphthimidazol-4,9-dione], for which, in test [1], the pA2 turned out to be 7.60. The IC50 in test [2] came out at 50 nM; in test [3] it was 48 nM.
By ED50 is commonly meant the midpoint of the dose-response relation. The low end stands for an effect at a small dose, the high end for a need for a large dose. Take `CCCCc1nc2c(n1Cc1ccc(-c3ccccc3C(=O)O)cc1)C(=O)c1ccccc1C2=O` [Compound No. 1, 1-[(2'-Carboxybiphenyl-4-yl)methyl]-2-n-butyl-1H-naphthimidazol-4,9-dione]: the 50% effective dose (ED50) in test [4] was 22.6 mg/kg. The pA2 in test [1] is reported as 6.64. Besides, the values for the IC50 in test [2] and in test [3] were 610 nM and 540 nM, respectively.
